In ChEMBL document CHEMBL4837230, “Thiophene-2-carboxamide derivatives of anthraquinone: A new potent antitumor chemotype” (Eur J Med Chem, 2021):
Calls of active or inactive are those of the source. No cut-off for these calls is given here.

Assays:
K562 [1] = experiment: Induction of cell cycle arrest in human K562 cells assessed as increase in accumulation at G2/M phase at 2.5 uM after 2 hrs by flow cytometric analysis (reference value: 15.2%); type: functional
K562 [2] = experiment: Induction of apoptosis in human K562 cells assessed as necrotic cells after 24 hrs by Annexin V-APC/PI double staining based flow cytometric analysis (reference value: 6.3%); type: functional
HL-60 = experiment: Cytotoxicity in human HL-60 cells assessed as reduction in cell viability incubated for 72 hrs by MTT assay; type: functional, cell-based; conditions: HL-60, 72 h
K562 [3] = experiment: Induction of cell cycle arrest in human K562 cells assessed as increase in accumulation at S phase at 2.5 uM after 2 hrs by flow cytometric analysis (reference value: 23.1%); type: functional
[4] = Drug localization in lysosome of mouse NIH3T3 cells at 1 uM incubated for 60 mins by lyso-tracker red based confocal microscopic method; type: ADME, cell-based; conditions: nih3t3, 1 h
K562 [5] = experiment: Induction of cell cycle arrest in human K562 cells assessed as increase in accumulation at S phase at 2.5 uM after 6 hrs by flow cytometric analysis (reference value: 37%); type: functional
K562 [6] = experiment: Induction of cell cycle arrest in human K562 cells assessed as increase in accumulation at G2/M phase at 2.5 uM after 6 hrs by flow cytometric analysis (reference value: 26.8%); type: functional
K562 [7] = experiment: Induction of apoptosis in human K562 cells assessed as early apoptotic cells after 3 hrs by Annexin V-APC/PI double staining based flow cytometric analysis (reference value: 0.1%); type: functional
K562 [8] = experiment: Induction of apoptosis in human K562 cells assessed as necrotic cells after 3 hrs by Annexin V-APC/PI double staining based flow cytometric analysis (reference value: 6.3%); type: functional
[9] = Cytotoxicity in human K562/4 cells assessed as reduction in cell viability incubated for 72 hrs by MTT assay; type: functional, cell-based; conditions: K562/4, 72 h
K562 [10] = experiment: Induction of cell cycle arrest in human K562 cells assessed as increase in accumulation at G0/G1 phase at 2.5 uM after 4 hrs by flow cytometric analysis (reference value: 19.2%); type: functional
K562 [11] = experiment: Cytotoxicity in human K562 cells assessed as reduction in cell viability at 0.5 uM incubated with compound for 120 mins followed by cell washing and measured after 72 hrs by propidium iodide staining based flow cytometric analysis; type: functional; conditions: 2 h
K562 [12] = experiment: Cytotoxicity in human K562 cells assessed as reduction in cell viability incubated for 72 hrs by MTT assay; type: functional, cell-based; conditions: K562, 72 h
K562 [13] = experiment: Induction of cell cycle arrest in human K562 cells assessed as increase in accumulation at sub-G1 phase at 2.5 uM by flow cytometric analysis (reference value: 16.1%); type: functional
K562 [14] = experiment: Induction of cell cycle arrest in human K562 cells assessed as increase in accumulation at G0/G1 phase at 2.5 uM by flow cytometric analysis (reference value: 60.9%); type: functional
K562 [15] = experiment: Induction of cell cycle arrest in human K562 cells assessed as increase in accumulation at sub-G1 phase at 0.5 uM after 48 hrs by propidium iodide staining based flow cytometric analysis (reference value: 8.4%); type: functional
K562 [16] = experiment: Induction of cell cycle arrest in human K562 cells assessed as increase in accumulation at sub-G1 phase at 0.5 uM after 24 hrs by propidium iodide staining based flow cytometric analysis (reference value: 8.4%); type: functional
NCI-H460 = experiment: Cytotoxicity in human NCI-H460 cells assessed as reduction in cell viability incubated for 72 hrs by MTT assay; type: functional, cell-based; conditions: NCI-H460, 72 h
K562 [17] = experiment: Induction of cell cycle arrest in human K562 cells assessed as increase in accumulation at sub-G1 phase at 5 uM after 48 hrs by propidium iodide staining based flow cytometric analysis (reference value: 8.4%); type: functional
K562 [18] = experiment: Cytotoxicity in human K562 cells assessed as reduction in cell viability at 2.5 uM incubated for 72 hrs by propidium iodide staining based flow cytometric analysis; type: functional
Fibroblast = experiment: Cytotoxicity in human Fibroblast cells assessed as reduction in cell viability incubated for 72 hrs by MTT assay; type: functional, cell-based
K562 [19] = experiment: Induction of apoptosis in human K562 cells assessed as viable cells after 3 hrs by Annexin V-[…]/PI double staining based flow cytometric analysis (reference value: 91%); type: functional
K562 [20] = experiment: Cytotoxicity in human K562 cells assessed as reduction in cell viability at 1 uM incubated for 72 hrs by propidium iodide staining based flow cytometric analysis; type: functional
K562 [21] = experiment: Induction of cell cycle arrest in human K562 cells assessed as increase in accumulation at G0/G1 phase at 2.5 uM after 2 hrs by flow cytometric analysis (reference value: 46.5%); type: functional
HCT-116 [22] = experiment: Cytotoxicity in human HCT-116 cells assessed as reduction in cell viability incubated for 72 hrs by MTT assay; type: functional, cell-based; conditions: HCT-116, 72 h
Calf thymus DNA = experiment: Binding affinity to calf thymus double strand DNA incubated for 5 mins by spectrophotometry; type: nucleic-acid assay; conditions: Bos taurus
K562 [23] = experiment: Induction of ROS generation in human K562 cells at 2.5 uM after 15 to 75 mins by Deep Red dye based flow cytometry method; type: functional, cell-based; conditions: time 15-75 min
[24] = Drug localization in mitochondria of mouse NIH3T3 cells at 1 uM measured after 5 mins by MitoTracker red based confocal microscopic method; type: ADME; conditions: nih3t3, 5 min
K562 [25] = experiment: Cytotoxicity against human K562 cells in presence of NAC; type: functional, cell-based
K562 [26] = experiment: Induction of cell cycle arrest in human K562 cells assessed as increase in accumulation at G2/M phase at 2.5 uM by flow cytometric analysis (reference value: 11.8%); type: functional
K562 [27] = experiment: Cytotoxicity in human K562 cells assessed as reduction in cell viability at 2.5 uM incubated with compound for 60 mins followed by cell washing and measured after72 hrs by propidium iodide staining based flow cytometric analysis; type: functional; conditions: 1 h
K562 [28] = experiment: Induction of apoptosis in human K562 cells assessed as activation of casapse-3 cleavage at 2.5 uM measured after 6 hrs by Western blot analysis; type: functional, cell-based
K562 [29] = experiment: Induction of apoptosis in human K562 cells assessed as early apoptotic cells after 24 hrs by Annexin V-APC/PI double staining based flow cytometric analysis (reference value: 0.1%); type: functional
[30] = Cytotoxicity in human DND41 cells assessed as reduction in cell viability incubated for 72 hrs by MTT assay; type: functional, cell-based; conditions: DND41, 72 h
K562 [31] = experiment: Induction of cell cycle arrest in human K562 cells assessed as increase in accumulation at sub-G1 phase at 2.5 uM after 4 hrs by flow cytometric analysis (reference value: 14%); type: functional
K562 [32] = experiment: Induction of cell cycle arrest in human K562 cells assessed as increase in accumulation at S phase at 2.5 uM after 4 hrs by flow cytometric analysis (reference value: 47.1%); type: functional
HCT-116 [33] = experiment: Cytotoxicity against p53 knock out human HCT-116 cells assessed as reduction in cell viability incubated for 72 hrs by MTT assay; type: functional, cell-based; conditions: HCT-116, 72 h
[34] = Resistance index, ratio of IC50 for cytotoxicity against human K562/4 cells to IC50 for cytotoxicity against human K562 cells; type: functional
K562 [35] = experiment: Induction of apoptosis in human K562 cells assessed as activation of PARP cleavage at 2.5 uM measured after 6 hrs by Western blot analysis; type: functional, cell-based

SMILES: N[C@H]1CCN(C(=O)c2cc3c(O)c4c(c(O)c3s2)C(=O)c2ccccc2C4=O)C1
- Activity (K562 [1]): 15.9%
- Activity (K562 [2]): 48.8%
- IC50 (HL-60): 0.3 µM
- Activity (K562 [3]): 27.8%
- Drug uptake [4]: Active
- Activity (K562 [5]): 29.8%
- Activity (K562 [6]): 13.9%
- Activity (K562 [7]): 0.6%
- Activity (K562 [8]): 38.2%
- IC50 [9]: 0.4 µM
- Activity (K562 [10]): 28.1%
- Activity (K562 [11]): 8.7%
- IC50 (K562 [12]): 0.3 µM
- Activity (K562 [13]): 14.9%
- Activity (K562 [14]): 59.1%
- Activity (K562 [15]): 33.2%
- Activity (K562 [16]): 18.7%
- IC50 (NCI-H460): 0.4 µM
- Activity (K562 [17]): 89.7%
- Activity (K562 [18]): 94.8%
- IC50 (Fibroblast): 1.4 µM
- Activity (K562 [19]): 47.9%
- Activity (K562 [20]): 79.9%
- Activity (K562 [21]): 40.4%
- IC50 (HCT-116 [22]): 0.5 µM
- Activity (Calf thymus DNA): inactive
- Activity (K562 [23]): inactive
- Drug uptake [24]: Not Active
- Activity (K562 [25]): Active
- Activity (K562 [26]): 14%
- Activity (K562 [27]): 63.4%
- Activity (K562 [28]): Active
- Activity (K562 [29]): 0.1%
- IC50 [30]: 0.4 µM
- Activity (K562 [31]): 14.5%
- Activity (K562 [32]): 40.1%
- IC50 (HCT-116 [33]): 0.5 µM
- Ratio [34]: 1.3
- Activity (K562 [35]): Active
